# Publication PMC6152224 (Molecules : A Journal of Synthetic Chemistry and Natural …, 2017)
# Counter-ions that a name gives are not always drawn. Like-named read-outs stand apart in the source and are kept apart here.
# Legend:
# hAChE = target: T1, hAChE (Homo sapiens, UniProt P22303); assay: Kinetic study of AChE inhibition (Lineweaver-Burk, nonlinear regression); assay type: biochemical
# T1 construct: purchased Sigma-Aldrich (Prague, Czech Republic)
# [1] = Experimentally determined physicochemical values with Sirius T3 device
# HepG2 cell line = assay: cells; assay type: cell-based, human; details: read-out: IC50 ± SEM HepG2
# ACHN cell line = assay: cells; assay type: cell-based, human; details: read-out: IC50 ± SEM ACHN
# SH-SY5Y cell line = assay: cells; assay type: cell-based, human; details: read-out: IC50 ± SEM SH-SY5Y
# in vitro = details: PAMPA, pH 7.4
# [2] = target: T2, human plasmatic BChE (hBChE) (Homo sapiens, UniProt P06276); assay: In vitro anti-cholinesterase assay (modified Ellman's method), hBChE; assay type: biochemical; details: mean of at least three experiments; read-out: IC50 ± SEM hBChE
# T2 construct: human plasmatic BChE (hBChE, E.C. 3.1.1.8, purchased from Sigma-Aldrich); purchased Sigma-Aldrich (Prague, Czech Republic); host or cells: human plasma
# [3] = PAMPA; taken from ref 52, 53; cited from earlier work
# hBChE = details: literature value; cited from earlier work
# [4] = PAMPA, pH 7.4
# AChE = tested on: AChE; design: method as in PMID 23480140; details: versus THA and (−)-huperzine A; cited from earlier work
# [5] = tested on: 3-nitropropionic acid (3-NP) intoxication; details: 3-NP-induced assay, HupY pretreatment; cited from earlier work
# [6] = tested on: HepG2, ACHN and SH-SY5Y cell lines; assay: cells; details: Homo sapiens, 24 h, read-out: IC50 values for all the tested cell lines
# [7] = MTT, cytotoxic profile assessed after 24 h
# T1 sequence (P22303 32-614): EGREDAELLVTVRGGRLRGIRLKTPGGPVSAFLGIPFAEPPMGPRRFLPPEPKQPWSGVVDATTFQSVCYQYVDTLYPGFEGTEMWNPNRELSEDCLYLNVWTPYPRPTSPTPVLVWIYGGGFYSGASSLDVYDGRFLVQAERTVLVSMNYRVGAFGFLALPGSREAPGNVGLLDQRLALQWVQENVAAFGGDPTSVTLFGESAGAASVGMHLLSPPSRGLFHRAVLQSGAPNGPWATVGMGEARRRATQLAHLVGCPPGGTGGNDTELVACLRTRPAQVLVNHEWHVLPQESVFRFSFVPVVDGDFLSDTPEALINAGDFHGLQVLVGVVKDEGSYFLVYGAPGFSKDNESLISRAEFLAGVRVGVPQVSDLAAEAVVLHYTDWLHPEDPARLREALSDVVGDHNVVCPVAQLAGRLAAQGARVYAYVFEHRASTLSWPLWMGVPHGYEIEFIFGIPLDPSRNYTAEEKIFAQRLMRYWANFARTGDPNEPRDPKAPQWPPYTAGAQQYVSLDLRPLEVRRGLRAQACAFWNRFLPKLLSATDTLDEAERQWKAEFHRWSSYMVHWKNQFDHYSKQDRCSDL
# T2 sequence (P06276 29-602): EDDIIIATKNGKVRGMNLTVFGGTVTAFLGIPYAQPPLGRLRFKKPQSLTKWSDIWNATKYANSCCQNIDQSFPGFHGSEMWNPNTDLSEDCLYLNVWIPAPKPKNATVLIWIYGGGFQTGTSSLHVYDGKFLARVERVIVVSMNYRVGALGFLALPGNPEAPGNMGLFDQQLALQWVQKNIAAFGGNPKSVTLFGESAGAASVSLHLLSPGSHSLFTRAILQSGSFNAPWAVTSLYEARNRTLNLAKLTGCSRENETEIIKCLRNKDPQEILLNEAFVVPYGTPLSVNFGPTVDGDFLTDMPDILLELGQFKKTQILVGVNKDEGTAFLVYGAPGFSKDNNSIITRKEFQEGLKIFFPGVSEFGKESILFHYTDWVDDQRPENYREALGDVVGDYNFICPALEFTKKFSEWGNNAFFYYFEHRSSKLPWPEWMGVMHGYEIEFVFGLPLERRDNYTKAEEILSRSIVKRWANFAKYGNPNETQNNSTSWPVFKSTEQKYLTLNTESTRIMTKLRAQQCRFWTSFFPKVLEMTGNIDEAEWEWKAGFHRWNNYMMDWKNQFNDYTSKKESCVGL
structure (smiles),measurement,setting,value
"COc1ccc2nc3c(c(N)c2c1)C1CC(C)=CC(C3)C1 (racemic) [(±)-1·HCl, rac-6-Methoxy-15-methyl-10-azatetracyclo[11.3.1.0^2,11.0^4,9]heptadeca-2(11),3,5,7,9,14-hexaen-3-amine hydrochloride]",Ki',"hAChE; enzyme-substrate complex, inhibitor 1.00, 10.0 and 100 µM",3.67 ± 0.42 µM
same,type of inhibition,"hAChE; nonlinear regression, sum-of-squares F-test, p < 0.05",mixed type of inhibition
same,logD,"[1]; pH 7.4, read-out: logD7.4 (experimental)",1.73
same,logP,[1]; read-out: logP (experimental),3.58
same,pKa,[1]; read-out: pKa (experimental),9.54
same,IC50,"HepG2 cell line; Homo sapiens, HepG2, 24 h",14.91 ± 0.11 µM
same,IC50,"ACHN cell line; Homo sapiens, ACHN, 24 h",32.2 ± 0.72 µM
same,IC50,"SH-SY5Y cell line; Homo sapiens, SH-SY5Y, 24 h",17.84 ± 0.09 µM
same,Papp at 100 µM,in vitro,7.64 ± 0.22 ×10⁻⁶ cm/s
"CC1=CC2Cc3nc4cc(Cl)ccc4c(N)c3C(C1)C2 (racemic) [(±)-HupY·HCl, rac-7-Chloro-15-methyl-10-azatetracyclo[11.3.1.0^2,11.0^4,9]heptadeca-2(11),3,5,7,9,14-hexaen-3-amine hydrochloride]",IC50,[2],0.358 ± 0.025 µM
same,IC50,"HepG2 cell line; Homo sapiens, HepG2, 24 h",15.9 ± 1.17 µM
same,IC50,"ACHN cell line; Homo sapiens, ACHN, 24 h",24.6 ± 0.32 µM
same,IC50,"SH-SY5Y cell line; Homo sapiens, SH-SY5Y, 24 h",17.5 ± 0.44 µM
same,Papp,in vitro,5.89 ± 0.36 ×10⁻⁶ cm/s
Nc1c2c(nc3cc(Cl)ccc13)CCCC2 [6-chlorotacrine],IC50,HepG2 cell line,43.2 ± 1.17 µM
same,IC50,ACHN cell line; [7],55.1 ± 1.76 µM
same,IC50,SH-SY5Y cell line; [7],50.4 ± 1.28 µM
same,Pe ± SEM,[3],5.00 ± 0.45 ^c 10^−6 cm·s^−1
CC1=C[C@H]2Cc3nc4cc(Cl)ccc4c(N)c3[C@@H](C1)C2 [(+)-HupY],IC50,hBChE,0.153 µM
CC1=C[C@@H]2Cc3nc4cc(Cl)ccc4c(N)c3[C@H](C1)C2 [(−)-HupY],IC50,hBChE,0.247 µM
"CO/N=C(\C(=O)N[C@@H]1C(=O)N2C(C(=O)O)=C(COC(N)=O)CS[C@H]12)c1ccco1 [Cefuroxim, cefuroxime]",Pe ± SEM,[4],2.70 ± 0.1 10^−6 cm·s^−1
"COc1ccc2nc3c(c(N)c2c1)CCCC3 [Compound 7-MEOTA, 7-methoxytacrine]",IC50,"HepG2 cell line; Homo sapiens, HepG2, 24 h",44.4 ± 3.35 µM
same,IC50,"ACHN cell line; Homo sapiens, ACHN, 24 h",49.3 ± 2.69 µM
same,IC50,"SH-SY5Y cell line; Homo sapiens, SH-SY5Y, 24 h",26.8 ± 1.04 µM
same,Papp,in vitro,6.5 ± 1.85 ×10⁻⁶ cm/s
CCC1=CC2Cc3nc4cc(Cl)ccc4c(N)c3[C@@H](C1)C2 [HupX],AChE inhibition potency relative to the parent structures,AChE,more than 100 times
CC1=CC2Cc3nc4cc(Cl)ccc4c(N)c3C(C1)C2 (centres unmarked) [HupY],survival of pretreated mice,[5],increased the survival
"CN1C(C(=O)Nc2ccccn2)=C(O)c2ccccc2S1(=O)=O [Piroxicam, piroxicam]",Pe ± SEM,[4],2.20 ± 0.15 10^−6 cm·s^−1
"Nc1c2c(nc3ccccc13)CCCC2 [THA, 1,2,3,4-tetrahydro-9-aminoacridine]",IC50,"ACHN cell line; Homo sapiens, ACHN, 24 h",155.2 ± 0.67 µM
same,IC50,"SH-SY5Y cell line; Homo sapiens, SH-SY5Y, 24 h",121 ± 1.97 µM
same,Pe ± SEM,[3],5.30 ± 0.20 ^c 10^−6 cm·s^−1
same,IC50,[6],120 to 168 µM
